Measured values from patent US20080015217A1, “ANTIOXIDANT COMBINATIONS FOR USE IN RUMINANT FEED RATIONS” (NOVUS INTERNATIONAL, INC., priority 2006, published 2008).

Columns and labels:
[1] = Oil stability index (OSI) method, soybean oil; settings: 500 ppm antioxidant, FIG. 1
[2] = Active oxygen method (AOM), soybean oil; settings: soybean oil subjected to oxidative stress, 500 ppm antioxidant, FIG. 1

Question: For CCOc1ccc2c(c1)C(C)=CC(C)(C)N2 [ETX, 6-ethoxy-1,2-dihydro-2,2,4-trimethylquinoline], which OSI induction time [1] is on record?
Answer: about 6 hr

Question: What about the peroxide values [2] of the same molecule?
Answer: about 11 meq
